Results reported in US20170305943A1, “COMPOUNDS FOR THE TREATMENT OF BACTERIAL INFECTIONS” (priority 2014, published 2017).
In brackets after ≈: the same amount, converted by molar mass.

system: Clostridium difficile (Isolate ID ATCC 9689); assay: Bacterial Assay: Determination of Antibacterial Activity (MIC, broth microdilution or agar dilution); assay type: cell-based; details: Clostridioides difficile, ATCC9689, 48 h, read-out: C. difficile MIC Activity Range
Description: Bacterial Assay: Determination of Antibacterial Activity Compounds of the invention were tested for antimicrobial activity by susceptibility testing in liquid or on solid media. Minimum inhibitory concentrations (MICs) for compounds against each strain were determined by the broth microdilution or agar dilution method according to the guidelines of the Clinical Laboratories and Standards Institute, formerly the National Committee for Clinical Laboratory Standards (Clinical Laboratories and Standards Institute. Methods for Dilution Antimicrobial Susceptibility Tests for Bacteria That Grow Anaerobically; Approved Standard-Seventh Edition. Document M11-A7, CLSI, Wayne, Pa., 2007, Clinical Laboratories and Standards Institute). Briefly MICs were determined by visible inspection after 48 hours of growth in the presence of compounds, cultures were grown at 37° C. in anaerobic gas packs using reinforced clostridial medium supplemented with 0.1% defribrinated horse blood. The bacterial strains tested include C. difficile (Clostridium difficile (Isolate ID ATCC 9689)) (Table 2) and two drug resistant clinical isolates (Clostridium difficile (Isolate ID BI-9) and Clostridium difficile (Isolate ID 027-01) (Table 3).
MICs were determined to be within the activity ranges “A” activity≦1.01 μg/mL; “B” activity>1.0 μg/mL-4.0 μg/mL; “C” activity>4.0 μg/mL-16 μg/mL

Q: For N#CCCCN(CCCCOc1ccc(OC(F)(F)F)cc1)c1ccc(F)c(C(N)=O)c1F [Compound 182, 3-[(3-cyanopropyl){4-[4-(trifluoromethoxy)phenoxy]butyl)amino]-2,6-difluorobenzamide], which MIC is on record?
A: 4 to 16 µg/mL (≈ 8.48 to 33.9 µM)

Q: Which MIC does the source give for CC(=O)OCCCC(Oc1ccc(F)c(C(N)=O)c1F)c1nc(-c2ccc(C(F)(F)F)cc2)c(Br)o1 (stereo not drawn) [Compound 45, 4-{5-bromo-4-[4-(trifluoromethyl)phenyl]-1,3-oxazol-2-yl}-4-(3-carbamoyl-2,4-difluorophenoxy)butyl acetate] here?
A: 1 to 4 µg/mL

Q: NC(=O)c1c(F)ccc(NCc2nc(-c3ccc(C(F)(F)F)cc3)cs2)c1F [Compound 122, 2,6-difluoro-3-[({4-[4-(trifluoromethyl)phenyl]-1,3-thiazol-2-yl}methyl)amino]benzamide] was tested. Which MIC did it give?
A: < 1.01 µg/mL

Q: How did the MIC turn out when NC(=O)c1c(F)ccc(OCCOCCOc2ccc(OC(F)(F)F)cc2)c1F [Compound 145, 2,6-difluoro-3-(2-{2-[4-(trifluoromethoxy)phenoxy]ethoxy}ethoxy) benzamide] was run?
A: < 1.01 µg/mL

Q: Which MIC does the source give for CCCCCCCCCNc1ccc(F)c(C(N)=O)c1F [Compound 123, 2,6-difluoro-3-(nonylamino)benzamide] here?
A: 1 to 4 µg/mL (≈ 3.35 to 13.4 µM)

Q: Which MIC does the source give for NC(=O)c1c(F)ccc(NCCCCOc2ccc(OC(F)(F)F)cc2)c1F [Compound 150, 2,6-difluoro-3-({4-[4-(trifluoromethoxy)phenoxy]butyl}amino) benzamide] here?
A: 1 to 4 µg/mL (≈ 2.47 to 9.89 µM)

Q: NC(=O)CN(CCCCOc1ccc(OC(F)(F)F)cc1)c1ccc(F)c(C(N)=O)c1F [Compound 183, 3-[(2-amino-2-oxoethyl){4-[4-(trifluoromethoxy)phenoxy]butyl}amino]-2,6-difluorobenzamide] was tested. Which MIC did it give?
A: 4 to 16 µg/mL (≈ 8.67 to 34.7 µM)

Q: How did the MIC turn out when NC(=O)c1c(F)ccc(OCCCc2nc(-c3ccc(S(F)(F)(F)(F)F)cc3)cs2)c1F [Compound 116, 2,6-difluoro-3-(3-{4-[4-(pentafluoro-lambda~6~- sulfanyl)phenyl]-1,3-thiazol-2-yl}propoxy)benzamide] was run?
A: 1 to 4 µg/mL (≈ 2 to 7.99 µM)

Q: With COc1ccc(OCCCCOc2ccc(F)c(C(N)=O)c2F)cc1 [Compound 154, 2,6-difluoro-3-[4-(4-methoxyphenoxy)butoxy]benzamide] as the molecule, how does the MIC read?
A: 1 to 4 µg/mL (≈ 2.85 to 11.4 µM)

Q: How did the MIC turn out when NC(=O)c1c(F)ccc(OC(CNC(=O)c2ccccn2)c2nc(-c3ccc(C(F)(F)F)cc3)c(Br)o2)c1F (racemic) [Compound 98, N-[2-{5-bromo-4-[4-(trifluoromethyl)phenyl]-1,3-oxazol-2-yl}-2-(3-carbamoyl-2,4-difluorophenoxy)ethyl]pyridine-2-carboxamide] was run?
A: 1 to 4 µg/mL (≈ 1.64 to 6.54 µM)

Q: How did the MIC turn out when COCCNC(=O)OCC(Oc1ccc(F)c(C(N)=O)c1F)c1nc(-c2ccc(C(F)(F)F)cc2)c(Br)o1 (stereo not drawn) [Compound 60, 2-{5-bromo-4-[4-(trifluoromethyl)phenyl]-1,3-oxazol-2-yl}-2-(3-carbamoyl-2,4-difluorophenoxy)ethyl (2-methoxyethyl)carbamate] was run?
A: < 1.01 µg/mL

Q: For CNCC(=O)OCC(Oc1ccc(F)c(C(N)=O)c1F)c1nc(-c2ccc(Cl)cc2)c(Cl)o1 (stereo not drawn) [Compound 37, 2-(3-carbamoyl-2,4-difluorophenoxy)-2-[5-chloro-4-(4-chlorophenyl)-1,3-oxazol-2-yl]ethyl N-methylglycinate], which MIC is on record?
A: 4 to 16 µg/mL (≈ 8 to 32 µM)

Q: For NC(=O)c1c(F)ccc(OCCCCOc2ccc(C(F)(F)F)nn2)c1F [Compound 158, 2,6-difluoro-3-(4-{[6-(trifluoromethyl)pyridazin-3-yl]oxy}butoxy)benzamide], which MIC is on record?
A: 4 to 16 µg/mL (≈ 10.2 to 40.9 µM)

Q: How did the MIC turn out when Cc1nnc(CNC(=O)OCC(Oc2ccc(F)c(C(N)=O)c2F)c2nc(-c3ccc(C(F)(F)F)cc3)c(Br)o2)o1 (stereo not drawn) [Compound 65, 2-{5-bromo-4-[4-(trifluoromethyl)phenyl]-1,3-oxazol-2-yl}-2-(3-carbamoyl-2,4-difluorophenoxy)ethyl [(5-methyl-1,3,4-oxadiazol-2-yl)methyl]carbamate] was run?
A: 1 to 4 µg/mL (≈ 1.55 to 6.19 µM)

Q: How did the MIC turn out when NC(=O)c1c(F)ccc(OCCCCOc2ccc(Cl)cc2Cl)c1F [Compound 137, 3-[4-(2,4-dichlorophenoxy)butoxy]-2,6-difluorobenzamide] was run?
A: < 1.01 µg/mL

Q: For CC(=O)OCC(Oc1ccc(F)c(C(N)=O)c1F)c1nc(-c2ccc(OC(F)(F)F)cc2)c(Br)o1 (stereo not drawn) [Compound 51, 2-{5-bromo-4-[4-(trifluoromethoxy)phenyl]-1,3-oxazol-2-yl}-2-(3-carbamoyl-2,4-difluorophenoxy)ethyl acetate], which MIC is on record?
A: < 1.01 µg/mL

Q: For NC(=O)c1c(F)ccc(OC(COC(=O)Nc2cccnc2)c2nc(-c3ccc(C(F)(F)F)cc3)c(Br)o2)c1F (racemic) [Compound 64, 2-{5-bromo-4-[4-(trifluoromethyl)phenyl]-1,3-oxazol-2-yl}-2-(3-carbamoyl-2,4-difluorophenoxy)ethyl pyridin-3-ylcarbamate], which MIC is on record?
A: < 1.01 µg/mL

Q: C=CCc1oc(C(C)Oc2ccc(F)c(C(N)=O)c2F)nc1-c1ccc(OC(F)(F)F)cc1 (stereo not drawn) [Compound 26, 2,6-difluoro-3-(1-{5-(prop-2-en-1-yl)-4-[4-(trifluoromethoxy)phenyl]-1,3-oxazol-2-yl}ethoxy)benzamide] was tested. Which MIC did it give?
A: 4 to 16 µg/mL (≈ 8.54 to 34.2 µM)

Q: How did the MIC turn out when Cc1noc(CNC(=O)OCC(Oc2ccc(F)c(C(N)=O)c2F)c2nc(-c3ccc(C(F)(F)F)cc3)c(Br)o2)n1 (stereo not drawn) [Compound 68, 2-{5-bromo-4-[4-(trifluoromethyl)phenyl]-1,3-oxazol-2-yl}-2-(3-carbamoyl-2,4-difluorophenoxy)ethyl [(3-methyl-1,2,4-oxadiazol-5-yl)methyl]carbamate] was run?
A: 1 to 4 µg/mL (≈ 1.55 to 6.19 µM)

Q: CNC(=O)OCC(Oc1ccc(F)c(C(N)=O)c1F)c1nc(-c2ccc(C(F)(F)F)cc2)c(Br)o1 (stereo not drawn) [Compound 50, 2-{5-bromo-4-[4-(trifluoromethyl)phenyl]-1,3-oxazol-2-yl}-2-(3-carbamoyl-2,4-difluorophenoxy)ethyl methylcarbamate] was tested. Which MIC did it give?
A: < 1.01 µg/mL

Q: Which MIC does the source give for NC(=O)c1c(F)ccc(OCCCCSc2ccc(Cl)cc2)c1F [Compound 153, 3-{4-[(4-chlorophenyl)thio]butoxy}-2,6-difluorobenzamide] here?
A: < 1.01 µg/mL

Q: Which MIC does the source give for CCCc1oc(C(C)Oc2ccc(F)c(C(N)=O)c2F)nc1-c1ccc(OC(F)(F)F)cc1 (stereo not drawn) [Compound 28, 2,6-difluoro-3-(1-{5-propyl-4-[4-(trifluoromethoxy)phenyl]-1,3-oxazol-2-yl}ethoxy)benzamide] here?
A: 4 to 16 µg/mL (≈ 8.5 to 34 µM)

Q: NC(=O)c1c(F)ccc(OCCCCNc2ccc(OC(F)(F)F)cc2)c1F [Compound 148, 2,6-difluoro-3-(4-{[4-(trifluoromethoxy)phenyl]amino}butoxy) benzamide] was tested. Which MIC did it give?
A: < 1.01 µg/mL

Q: For N#Cc1cccc(OCCCCOc2ccc(F)c(C(N)=O)c2F)c1 [Compound 173, 3-[4-(3-cyanophenoxy)butoxy]-2,6-difluorobenzamide], which MIC is on record?
A: 4 to 16 µg/mL (≈ 11.5 to 46.2 µM)

Q: For Cc1ccc(CNC(=O)OCC(Oc2ccc(F)c(C(N)=O)c2F)c2nc(-c3ccc(C(F)(F)F)cc3)c(Br)o2)n1C (stereo not drawn) [Compound 86, 2-{5-bromo-4-[4-(trifluoromethyl)phenyl]-1,3-oxazol-2-yl}-2-(3-carbamoyl-2,4-difluorophenoxy)ethyl [(1,5-dimethyl-1H-pyrrol-2-yl)methyl]carbamate], which MIC is on record?
A: 1 to 4 µg/mL (≈ 1.52 to 6.08 µM)

Q: How did the MIC turn out when Cc1ccc(-c2nc(CCOc3ccc(F)c(C(N)=O)c3F)c(C)o2)cc1 [Compound 18, 2,6-difluoro-3-{2-[5-methyl-2-(4-methylphenyl)-1,3-oxazol-4-yl]ethoxy}benzamide] was run?
A: 1 to 4 µg/mL (≈ 2.69 to 10.7 µM)

Q: Which MIC does the source give for CN(Cc1ccncn1)C(=O)OCC(Oc1ccc(F)c(C(N)=O)c1F)c1nc(-c2ccc(C(F)(F)F)cc2)c(Br)o1 (stereo not drawn) [Compound 75, 2-{5-bromo-4-[4-(trifluoromethyl)phenyl]-1,3-oxazol-2-yl}-2-(3-carbamoyl-2,4-difluorophenoxy)ethyl methyl(pyrimidin-4-ylmethyl)carbamate] here?
A: 1 to 4 µg/mL (≈ 1.52 to 6.09 µM)

Q: Which MIC does the source give for Cc1nn(C)cc1CNC(=O)OCC(Oc1ccc(F)c(C(N)=O)c1F)c1nc(-c2ccc(C(F)(F)F)cc2)c(Br)o1 (stereo not drawn) [Compound 81, 2-{5-bromo-4-[4-(trifluoromethyl)phenyl]-1,3-oxazol-2-yl}-2-(3-carbamoyl-2,4-difluorophenoxy)ethyl [(1,3-dimethyl-1H-pyrazol-4-yl)methyl]carbamate] here?
A: < 1.01 µg/mL

Q: Which MIC does the source give for NC(=O)c1c(F)ccc(OC(CO)c2nc(-c3ccc(Cl)s3)c(Br)o2)c1F (racemic) [Compound 101, 3-{1-[5-bromo-4-(5-chlorothiophen-2-yl)-1,3-oxazol-2-yl]-2-hydroxyethoxy}-2,6-difluorobenzamide] here?
A: 1 to 4 µg/mL (≈ 2.08 to 8.34 µM)

Q: Cc1ccc(CN(CCCCOc2ccc(OC(F)(F)F)cc2)c2ccc(F)c(C(N)=O)c2F)cn1 [Compound 185, 2,6-difluoro-3-([(6-methylpyridin-3-yl)methyl]{4-[4-(trifluoromethoxy)phenoxy]butyl}amino)benzamide] was tested. Which MIC did it give?
A: 4 to 16 µg/mL (≈ 7.85 to 31.4 µM)

Q: For NC(=O)c1c(F)ccc(N(CCO)CCCCOc2ccc(OC(F)(F)F)cc2)c1F [Compound 181, 2,6-difluoro-3-[(2-hydroxyethyl){4-[4-(trifluoromethoxy)phenoxy]butyl}amino] benzamide], which MIC is on record?
A: 1 to 4 µg/mL (≈ 2.23 to 8.92 µM)

Q: How did the MIC turn out when NC(=O)c1c(F)ccc(OC(COC(=O)Cn2cccc2)c2nc(-c3ccc(C(F)(F)F)cc3)c(Br)o2)c1F (stereo not drawn) [Compound 40, 2-{5-bromo-4-[4-(trifluoromethyl)phenyl]-1,3-oxazol-2-yl}-2-(3-carbamoyl-2,4-difluorophenoxy)ethyl 1H-pyrrol-l-ylacetate] was run?
A: < 1.01 µg/mL

Q: Which MIC does the source give for NC(=O)c1c(F)ccc(OCCCc2nc(-c3ccc(OC(F)F)cc3)cs2)c1F [Compound 114, 3-(3-{4-[4-(difluoromethoxy)phenyl]-1,3-thiazol-2-yl}propoxy)-2,6-difluorobenzamide] here?
A: 1 to 4 µg/mL (≈ 2.27 to 9.08 µM)
